According to US12404241B2 (Celgene Corporation, priority 2018, dated 2025):
Where a name gives a salt, the structure may show the parent alone.

Biological target: T1, AR (Homo sapiens, UniProt P10275)
T1 construct: endogenous in cells; host or cells: VCaP cells
T1 sequence (P10275 1-920): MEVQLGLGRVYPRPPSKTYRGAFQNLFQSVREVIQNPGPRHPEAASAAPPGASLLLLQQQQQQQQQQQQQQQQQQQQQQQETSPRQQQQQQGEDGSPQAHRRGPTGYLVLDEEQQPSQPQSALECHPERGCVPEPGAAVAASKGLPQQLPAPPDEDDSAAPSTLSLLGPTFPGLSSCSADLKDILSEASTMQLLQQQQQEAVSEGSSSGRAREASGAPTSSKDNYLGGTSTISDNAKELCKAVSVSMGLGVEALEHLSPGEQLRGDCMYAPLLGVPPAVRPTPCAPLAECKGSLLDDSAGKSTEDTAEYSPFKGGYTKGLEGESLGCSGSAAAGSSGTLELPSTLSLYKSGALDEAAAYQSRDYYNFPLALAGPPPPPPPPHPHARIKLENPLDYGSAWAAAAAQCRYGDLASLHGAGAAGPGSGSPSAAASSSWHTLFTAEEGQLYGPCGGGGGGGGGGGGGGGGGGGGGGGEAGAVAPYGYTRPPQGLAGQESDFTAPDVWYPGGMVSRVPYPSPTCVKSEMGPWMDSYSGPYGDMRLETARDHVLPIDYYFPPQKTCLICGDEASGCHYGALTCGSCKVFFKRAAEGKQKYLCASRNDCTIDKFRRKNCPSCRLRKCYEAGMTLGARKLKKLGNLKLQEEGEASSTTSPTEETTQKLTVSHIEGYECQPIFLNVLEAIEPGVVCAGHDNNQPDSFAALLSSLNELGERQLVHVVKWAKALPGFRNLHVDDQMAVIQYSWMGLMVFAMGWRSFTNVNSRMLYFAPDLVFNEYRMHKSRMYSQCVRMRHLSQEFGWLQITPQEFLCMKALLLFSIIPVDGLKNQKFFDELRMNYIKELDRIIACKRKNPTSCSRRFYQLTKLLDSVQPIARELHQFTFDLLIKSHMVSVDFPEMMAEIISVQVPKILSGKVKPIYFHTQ
Assay: VCAP AR Degradation Assay
Type: cell-based
Settings: for Y (AR degradation efficiency, % of DMSO control): class symbols *; for DC50: class symbols A-C, read-out: DC50
Method in brief: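 VCaP cells treated 24 h at 37 °C with a 10-point 1:3 series (top 5 μM final; 0.1% DMSO control). Lysate AR measured by sandwich ELISA, normalized to DMSO as percent of control; DC50, EC50 and lowest AR level (Y) from four-parameter logistic fit.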

SMILES	Y (AR degradation efficiency, % of DMSO control)	DC50 [µM]
CC(F)(F)c1cc(N2C(=S)N(c3ccc(C#N)c(C(F)(F)F)c3)C(=O)C2(C)C)ccc1OCCN1CCN(CC(=O)Nc2cccc(NC3CCC(=O)NC3=O)c2)CC1 (centres unmarked) [Example 59, 2-(4-(2-(4-(3-(4-cyano-3-(trifluoromethyl)phenyl)-5,5-dimethyl-4-oxo-2-thioxoimidazolidin-1-yl)-2-(1,1-difluoroethyl)phenoxy)ethyl)piperazin-1-yl)-N-(3-(2,6-dioxopiperidin-3-ylamino)phenyl)acetamide]	* (0<Y<=25%)	< 0.1
CCc1cc(N2C(=S)N(c3ccc(C#N)c(C(F)(F)F)c3)C(=O)C2(C)C)ccc1OCCN1CCN(CC(=O)Nc2cccc(NC3CCC(=O)NC3=O)c2)C(C)(C)C1 (centres unmarked) [Example 95, 2-(4-(2-(4-(3-(4-cyano-3-(trifluoromethyl)phenyl)-5,5-dimethyl-4-oxo-2-thioxoimidazolidin-1-yl)-2-ethylphenoxy)ethyl)-2,2-dimethylpiperazin-1-yl)-N-(3-(2,6-dioxopiperidin-3-ylamino)phenyl)acetamide]	* (0<Y<=25%)	< 0.1
C[C@@H]1CN(CCOc2ccc(N3C(=S)N(c4ccc(C#N)c(Cl)c4)C(=O)C3(C)C)cc2C2CC2)C[C@H](C)N1CC(=O)Nc1cc(NC2CCC(=O)NC2=O)ccc1F (stereo partly drawn) [Example 221, 2-((2S,6R)-4-(2-(4-(3-(3-chloro-4-cyanophenyl)-5,5-dimethyl-4-oxo-2-thioxoimidazolidin-1-yl)-2-cyclopropylphenoxy)ethyl)-2,6-dimethylpiperazin-1-yl)-N-(5-(2,6-dioxopiperidin-3-ylamino)-2-fluorophenyl)acetamide]	** (25%<Y<=35%)	< 0.1
Cc1cc(NC(=O)CN2CCN(CCOc3ccc(N4C(=S)N(c5ccc(C#N)c(C(F)(F)F)c5)C(=O)C4(C)C)cc3F)CC2)cc(NC2CCC(=O)NC2=O)c1 (centres unmarked) [Example 15, hydrochloride]	** (25%<Y<=35%)	< 0.1
CCc1cc(N2C(=S)N(c3cnc(C#N)c(C(F)(F)F)c3)C(=O)C2(C)C)ccc1OCCN1C[C@H]2CC[C@@H]1CN2CC(=O)Nc1cc(Cl)cc(NC2CCC(=O)NC2=O)c1 (stereo partly drawn) [Example 184, N-(3-chloro-5-(2,6-dioxopiperidin-3-ylamino)phenyl)-2-((1R,4R)-5-(2-(4-(3-(6-cyano-5-(trifluoromethyl)pyridin-3-yl)-5,5-dimethyl-4-oxo-2-thioxoimidazolidin-1-yl)-2-ethylphenoxy)ethyl)-2,5-diazabicyclo[2.2.2]octan-2-yl)acetamide]	** (25%<Y<=35%)	0.1 to 0.5
CC1(C)C(=O)N(c2ccc(C#N)c(C(F)(F)F)c2)C(=S)N1c1ccc(OCCN2CCN(CC(=O)Nc3cccc(NC4CCC(=O)NC4=O)c3)[C@H](C(F)(F)F)C2)c(C2CC2)c1 (stereo partly drawn) [Example 245, 2-((S)-4-(2-(4-(3-(4-cyano-3-(trifluoromethyl)phenyl)-5,5-dimethyl-4-oxo-2-thioxoimidazolidin-1-yl)-2-cyclopropylphenoxy)ethyl)-2-(trifluoromethyl)piperazin-1-yl)-N-(3-(2,6-dioxopiperidin-3-ylamino)phenyl)acetamide]	* (0<Y<=25%)	< 0.1
CCc1cc(N2C(=S)N(c3cnc(C#N)c(C(F)(F)F)c3)C(=O)C2(C)C)ccc1OCCN1CCN(CC(=O)Nc2cccc(NC3CCC(=O)NC3=O)c2)CC1 (centres unmarked) [Example 22, hydrochloride]	* (0<Y<=25%)	< 0.1
C[C@@H]1CN(CCOc2ccc(N3C(=S)N(c4ccc(C#N)c(C(F)(F)F)c4)C(=O)C3(C)C)cc2C(C)(F)F)C[C@H](C)N1CC(=O)Nc1cccc(NC2CCC(=O)NC2=O)c1 (stereo partly drawn) [Example 252, 2-((2S,6R)-4-(2-(4-(3-(4-cyano-3-(trifluoromethyl)phenyl)-5,5-dimethyl-4-oxo-2-thioxoimidazolidin-1-yl)-2-(1,1-difluoroethyl)phenoxy)ethyl)-2,6-dimethylpiperazin-1-yl)-N-(3-(2,6-dioxopiperidin-3-ylamino)phenyl)acetamide]	* (0<Y<=25%)	< 0.1
CCc1cc(N2C(=S)N(c3cnc(C#N)c(C(F)(F)F)c3)C(=O)C23CCC3)ccc1OCCN1CCN(CC(=O)Nc2cc(Cl)cc(NC3CCC(=O)NC3=O)c2)CC1 (centres unmarked) [Example 85, N-(3-chloro-5-(2,6-dioxopiperidin-3-ylamino)phenyl)-2-(4-(2-(4-(7-(6-cyano-5-(trifluoromethyl)pyridin-3-yl)-8-oxo-6-thioxo-5,7-diazaspiro[3.4]octan-5-yl)-2-ethylphenoxy)ethyl)piperazin-1-yl)acetamide]	* (0<Y<=25%)	< 0.1
C[C@@H]1CN(CCOc2ccc(N3C(=S)N(c4ccc(C#N)c(C(F)(F)F)c4)C(=O)C3(C)C)cc2Cl)C[C@H](C)N1CC(=O)Nc1cccc(NC2CCC(=O)NC2=O)c1 (stereo partly drawn) [Example 282, 2-((2S,6R)-4-(2-(2-chloro-4-(3-(4-cyano-3-(trifluoromethyl)phenyl)-5,5-dimethyl-4-oxo-2-thioxoimidazolidin-1-yl)phenoxy)ethyl)-2,6-dimethylpiperazin-1-yl)-N-(3-(2,6-dioxopiperidin-3-ylamino)phenyl)acetamide]	* (0<Y<=25%)	< 0.1
CC(F)(F)c1cc(N2C(=S)N(c3cnc(C#N)c(C(F)(F)F)c3)C(=O)C2(C)C)ccc1OCCN1CCN(CC(=O)Nc2cc(F)cc(NC3CCC(=O)NC3=O)c2)CC1 (centres unmarked) [Example 80, 2-(4-(2-(4-(3-(6-cyano-5-(trifluoromethyl)pyridin-3-yl)-5,5-dimethyl-4-oxo-2-thioxoimidazolidin-1-yl)-2-(1,1-difluoroethyl)phenoxy)ethyl)piperazin-1-yl)-N-(3-(2,6-dioxopiperidin-3-ylamino)-5-fluorophenyl)acetamide]	* (0<Y<=25%)	< 0.1
CC(C)c1cc(N2C(=S)N(c3ccc(C#N)c(Cl)c3)C(=O)C2(C)C)ccc1OCCN1C[C@@H](C)N(CC(=O)Nc2cc(Cl)cc(NC3CCC(=O)NC3=O)c2)[C@@H](C)C1 (stereo partly drawn) [Example 223, 2-((2S,6R)-4-(2-(4-(3-(3-chloro-4-cyanophenyl)-5,5-dimethyl-4-oxo-2-thioxoimidazolidin-1-yl)-2-isopropylphenoxy)ethyl)-2,6-dimethylpiperazin-1-yl)-N-(3-chloro-5-(2,6-dioxopiperidin-3-ylamino)phenyl)acetamide]	** (25%<Y<=35%)	0.1 to 0.5
CCc1cc(N2C(=S)N(c3ccc(C#N)c(C(F)(F)F)c3)C(=O)C2(C)C)ccc1OCCN1C[C@@H](C)N(CC(=O)Nc2cccc(NC3CCC(=O)NC3=O)c2)[C@@H](C)C1 (stereo partly drawn) [Example 150, 2-((2S,6R)-4-(2-(4-(3-(4-cyano-3-(trifluoromethyl)phenyl)-5,5-dimethyl-4-oxo-2-thioxoimidazolidin-1-yl)-2-ethylphenoxy)ethyl)-2,6-dimethylpiperazin-1-yl)-N-(3-(2,6-dioxopiperidin-3-ylamino)phenyl)acetamide]	* (0<Y<=25%)	< 0.1
CCc1cc(N2C(=S)N(c3cnc(C#N)c(C(F)(F)F)c3)C(=O)C2(C)C)ccc1OCCN1CCN(CC(=O)Nc2cc(Cl)cc(NC3CCC(=O)NC3=O)c2)[C@H](C)C1 (stereo partly drawn) [Example 145, N-(3-chloro-5-(2,6-dioxopiperidin-3-ylamino)phenyl)-2-((R)-4-(2-(4-(3-(6-cyano-5-(trifluoromethyl)pyridin-3-yl)-5,5-dimethyl-4-oxo-2-thioxoimidazolidin-1-yl)-2-ethylphenoxy)ethyl)-2-methylpiperazin-1-yl)acetamide]	* (0<Y<=25%)	< 0.1
CCc1cc(N2C(=S)N(c3ccc(C#N)c(C(F)(F)F)c3)C(=O)C2(C)C)ccc1OCCN1CCN([C@@H](C)C(=O)Nc2cccc(NC3CCC(=O)NC3=O)c2)CC1 (stereo partly drawn) [Example 57, (2S)-2-(4-(2-(4-(3-(4-cyano-3-(trifluoromethyl)phenyl)-5,5-dimethyl-4-oxo-2-thioxoimidazolidin-1-yl)-2-ethylphenoxy)ethyl)piperazin-1-yl)-N-(3-(2,6-dioxopiperidin-3-ylamino)phenyl)propanamide]	* (0<Y<=25%)	< 0.1
CCC(C)c1cc(N2C(=S)N(c3ccc(C#N)c(C(F)(F)F)c3)C(=O)C2(C)C)ccc1OCCN1CCN(CC(=O)Nc2cccc(NC3CCC(=O)NC3=O)c2)CC1 (centres unmarked) [Example 29, hydrochloride]	** (25%<Y<=35%)	0.5 to 1
